In patent US20260297083A1, “SUBSTITUTED ACETYLENE COMPOUND DERIVATIVES AND THEIR PHARMACEUTICAL USE” (AVELOS THERAPEUTICS INC., priority 2023, published 2026):

Each compound was assayed on DLD-1 BRCA2(−/−) Cell (assay: Cell viability assay (Resazurin) in DLD1-BRCA2 cells). Settings: Homo sapiens, DLD-1, 336 h, 14 days, 1,500 cells/well, final DMSO 1%.
Assay type: cell-based
Procedure, shortened: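 DLD1-BRCA2 KG cells seeded at 1,500/well (parental 600/well) in RPMI-1640 with 10% FBS, compound added after 4 h (1% DMSO), media replaced every 3-4 days over 14 days at 37° C. Viability read by resazurin (0.1 mg/ml, 4 h) fluorescence at Ex/Em 560/590 nm; IC50 fitted.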

IC50 [µM] | Structure (SMILES)
1.1 to 5 | Cc1cc(C(F)(F)F)cc(N2[C@H](C(=O)N(CC#Cc3n[nH]c(=O)c4ccccc34)c3ccc(F)c(C)c3)CCS2(=O)=O)n1 [Example 101, (S)-N-(4-fluoro-3-methylphenyl)-2-(6-methyl-4-(trifluoromethyl)pyridin-2-yl)-N-(3-(4-oxo-3,4-dihydrophthalazin-1-yl)prop-2-yn-1-yl)isothiazolidine-3-carboxamide 1,1-dioxide]
< 1 | CCN1CCN(c2cnc(C#CCN(C(=O)[C@@H]3CCS(=O)(=O)N3c3cc(C(F)(F)F)cc(C)n3)c3ccc(F)c(C)c3)cn2)CC1 [Example 50, (S)-N-(3-(5-(4-ethylpiperazin-1-yl)pyrazin-2-yl)prop-2-yn-1-yl)-N-(4-fluoro-3-methylphenyl)-2-(6-methyl-4-(trifluoromethyl)pyridin-2-yl)isothiazolidine-3-carboxamide 1,1-dioxide]
< 1 | COc1ccc(C#CCN(C(=O)[C@@H]2CCS(=O)(=O)N2c2cc(C(F)(F)F)cc(C)n2)c2ccc(F)c(C)c2)nn1 [Example 27, (S)-N-(4-fluoro-3-methylphenyl)-N-(3-(6-methoxypyridazin-3-yl)prop-2-yn-1-yl)-2-(6-methyl-4-(trifluoromethyl)pyridin-2-yl)isothiazolidine-3-carboxamide 1,1-dioxide]
< 1 | Cc1cc(C(F)(F)F)cc(N2C(=O)CC[C@H]2C(=O)N(CC#Cc2cccc(=O)[nH]2)c2ccc(F)c(C)c2)n1 [Example 7, (2S)-N-(4-fluoro-3-methyl-phenyl)-1-[6-methyl-4-(trifluoromethyl)-2-pyridyl]-5-oxo-N-[3-(6-oxo-1H-pyridin-2-yl)prop-2-ynyl]pyrrolidine-2-carboxamide]
< 1 | CCN1CCN(c2cnc(C#CCN(C(=O)[C@@H]3CCC(=O)N3c3cc(C(F)(F)F)cc(C)n3)c3ccc(F)c(C)c3)cn2)CC1 [Example 11, (S)-N-(3-(5-(4-ethylpiperazin-1-yl)pyrazin-2-yl)prop-2-yn-1-yl)-N-(4-fluoro-3-methylphenyl)-1-(6-methyl-4-(trifluoromethyl)pyridin-2-yl)-5-oxopyrrolidine-2-carboxamide]
< 1 | Cc1cc(C(F)(F)F)cc(N2[C@H](C(=O)N(CC#Cc3ccc(N)nn3)c3ccc(F)c(C)c3)CCS2(=O)=O)n1 [Example 18, (S)-N-(3-(6-aminopyridazin-3-yl)prop-2-yn-1-yl)-N-(4-fluoro-3-methylphenyl)-2-(6-methyl-4-(trifluoromethyl)pyridin-2-yl)isothiazolidine-3-carboxamide 1,1-dioxide]
< 1 | Cc1ccc(F)c(N(CC#Cc2cnc(N)cn2)C(=O)[C@@H]2CCS(=O)(=O)N2c2cc(C(F)(F)F)cc(C)n2)c1 [Example 33, (S)-N-(3-(5-aminopyrazin-2-yl)prop-2-yn-1-yl)-N-(2-fluoro-5-methylphenyl)-2-(6-methyl-4-(trifluoromethyl)pyridin-2-yl)isothiazolidine-3-carboxamide 1,1-dioxide]
1.1 to 5 | Cc1cc(C(F)(F)F)cc(N2[C@H](C(=O)N(CC#Cc3cc(C)c(F)c(C)n3)c3ccc(F)c(C)c3)CCS2(=O)=O)n1 [Example 90, (S)-N-(4-fluoro-3-methylphenyl)-N-(3-(5-fluoro-4,6-dimethylpyridin-2-yl)prop-2-yn-1-yl)-2-(6-methyl-4-(trifluoromethyl)pyridin-2-yl)isothiazolidine-3-carboxamide 1,1-dioxide]
< 1 | Cc1cc(C(F)(F)F)cc(N2[C@H](C(=O)N(CC#Cc3cncc(C(=O)N4CCNCC4)n3)c3ccc(F)c(C)c3)CCS2(=O)=O)n1 [Example 72, (S)-N-(4-fluoro-3-methylphenyl)-2-(6-methyl-4-(trifluoromethyl)pyridin-2-yl)-N-(3-(6-(piperazine-1-carbonyl)pyrazin-2-yl)prop-2-yn-1-yl)isothiazolidine-3-carboxamide 1,1-dioxide]
1.1 to 5 | Cc1cc(C(F)(F)F)cc(N2[C@H](C(=O)N(CC#Cc3ccc(F)c(C(C)C)n3)c3ccc(F)c(C)c3)CCS2(=O)=O)n1 [Example 94, (S)-N-(4-fluoro-3-methylphenyl)-N-(3-(5-fluoro-6-isopropylpyridin-2-yl)prop-2-yn-1-yl)-2-(6-methyl-4-(trifluoromethyl)pyridin-2-yl)isothiazolidine-3-carboxamide 1,1-dioxide]
< 1 | Cc1cc(C(F)(F)F)cc(N2[C@H](C(=O)N(CC#Cc3ccc(N4CCOCC4)nc3)c3ccc(F)c(C)c3)CCS2(=O)=O)n1 [Example 85, (S)-N-(4-fluoro-3-methylphenyl)-2-(6-methyl-4-(trifluoromethyl)pyridin-2-yl)-N-(3-(6-morpholinopyridin-3-yl)prop-2-yn-1-yl)isothiazolidine-3-carboxamide 1,1-dioxide]
< 1 | Cc1cc(C(F)(F)F)cc(N2[C@H](C(=O)N(CC#Cc3ncc(C(=O)N4CCOCC4)cn3)c3ccc(F)c(C)c3)CCS2(=O)=O)n1 [Example 82, (S)-N-(4-fluoro-3-methylphenyl)-2-(6-methyl-4-(trifluoromethyl)pyridin-2-yl)-N-(3-(5-(morpholine-4-carbonyl)pyrimidin-2-yl)prop-2-yn-1-yl)isothiazolidine-3-carboxamide 1,1-dioxide]
< 1 | Cc1cc(C(F)(F)F)cc(N2[C@H](C(=O)N(CC#Cc3cnc(N4C[C@H](C)N(C(C)C)[C@@H](C)C4)cn3)c3ccc(F)c(C)c3)CCS2(=O)=O)n1 [Example 53, (S)-N-(4-fluoro-3-methylphenyl)-N-(3-(5-((3S,5S)-4-isopropyl-3,5-dimethylpiperazin-1-yl)pyrazin-2-yl)prop-2-yn-1-yl)-2-(6-methyl-4-(trifluoromethyl)pyridin-2-yl)isothiazolidine-3-carboxamide 1,1-dioxide]
< 1 | Cc1cc(C(F)(F)F)cc(N2[C@H](C(=O)N(CC#Cc3cnc(C(=O)N4CCOCC4)cn3)c3ccc(F)c(C)c3)CCS2(=O)=O)n1 [Example 69, (S)-N-(4-fluoro-3-methylphenyl)-2-(6-methyl-4-(trifluoromethyl)pyridin-2-yl)-N-(3-(5-(morpholine-4-carbonyl)pyrazin-2-yl)prop-2-yn-1-yl)isothiazolidine-3-carboxamide 1,1-dioxide]
1.1 to 5 | Cc1cc(C(F)(F)F)cc(N2[C@H](C(=O)N(CC#Cc3cccc(OC(C)C)n3)c3ccc(F)c(C)c3)CCS2(=O)=O)n1 [Example 88, (S)-N-(4-fluoro-3-methylphenyl)-N-(3-(6-isopropoxypyridin-2-yl)prop-2-yn-1-yl)-2-(6-methyl-4-(trifluoromethyl)pyridin-2-yl)isothiazolidine-3-carboxamide 1,1-dioxide]
< 1 | CCN1CCN(c2cnc(C#CCN(C(=O)[C@@H]3CCS(=O)(=O)N3c3cc(C(F)(F)F)cc(C)n3)c3cc(C)ccc3F)cn2)CC1 [Example 51, (S)-N-(3-(5-(4-ethylpiperazin-1-yl)pyrazin-2-yl)prop-2-yn-1-yl)-N-(2-fluoro-5-methylphenyl)-2-(6-methyl-4-(trifluoromethyl)pyridin-2-yl)isothiazolidine-3-carboxamide 1,1-dioxide]
< 1 | Cc1cc(C(F)(F)F)cc(N2[C@H](C(=O)N(CC#Cc3cnc(N)cn3)c3ccc(F)c(C)c3F)CCS2(=O)=O)n1 [Example 17, (S)—N-(3-(5-aminopyrazin-2-yl)prop-2-yn-1-yl)-N-(2,4-difluoro-3-methylphenyl)-2-(6-methyl-4-(trifluoromethyl)pyridin-2-yl)isothiazolidine-3-carboxamide 1,1-dioxide]
< 1 | Cc1cc(C(F)(F)F)cc(N2[C@H](C(=O)N(CC#Cc3cnc(NC(C)C)cn3)c3ccc(F)c(C)c3)CCS2(=O)=O)n1 [Example 36, (S)-N-(4-fluoro-3-methylphenyl)-N-(3-(5-(isopropylamino)pyrazin-2-yl)prop-2-yn-1-yl)-2-(6-methyl-4-(trifluoromethyl)pyridin-2-yl)isothiazolidine-3-carboxamide 1,1-dioxide]
< 1 | Cc1cc(C(F)(F)F)cc(N2C(=O)CC[C@H]2C(=O)N(CC#Cc2ccc(N)nn2)c2ccc(F)c(Cl)c2)n1 [Example 3, (S)-N-(3-(6-aminopyridazin-3-yl)prop-2-yn-1-yl)-N-(3-chloro-4-fluorophenyl)-1-(6-methyl-4-(trifluoromethyl)pyridin-2-yl)-5-oxopyrrolidine-2-carboxamide]
< 1 | Cc1cc(C(F)(F)F)cc(N2[C@H](C(=O)N(CC#Cc3cnc(C#N)cn3)c3ccc(F)c(C)c3)CCS2(=O)=O)n1 [Example 59, (S)-N-(3-(5-cyanopyrazin-2-yl)prop-2-yn-1-yl)-N-(4-fluoro-3-methylphenyl)-2-(6-methyl-4-(trifluoromethyl)pyridin-2-yl)isothiazolidine-3-carboxamide 1,1-dioxide]
< 1 | Cc1cc(C(F)(F)F)cc(N2[C@H](C(=O)N(CC#Cc3cnc(-c4ncon4)cn3)c3ccc(F)c(C)c3)CCS2(=O)=O)n1 [Example 58, (S)-N-(3-(5-(1,2,4-oxadiazol-3-yl)pyrazin-2-yl)prop-2-yn-1-yl)-N-(4-fluoro-3-methylphenyl)-2-(6-methyl-4-(trifluoromethyl)pyridin-2-yl)isothiazolidine-3-carboxamide 1,1-dioxide]
1.1 to 5 | CC(=O)Nc1ccc(C#CCN(C(=O)[C@@H]2CCS(=O)(=O)N2c2cc(C(F)(F)F)cc(C)n2)c2ccc(F)c(C)c2)nn1 [Example 22, (S)-N-(3-(6-acetamidopyridazin-3-yl)prop-2-yn-1-yl)-N-(4-fluoro-3-methylphenyl)-2-(6-methyl-4-(trifluoromethyl)pyridin-2-yl)isothiazolidine-3-carboxamide 1,1-dioxide]
< 1 | Cc1cc(C(F)(F)F)cc(N2C(=O)CC[C@H]2C(=O)N(CC#Cc2cnc(N)cn2)c2ccc(F)c(C)c2)n1 [Example 6, (2S)-N-[3-(5-aminopyrazin-2-yl)prop-2-ynyl]-N-(4-fluoro-3-methyl-phenyl)-1-[6-methyl-4-(trifluoromethyl)-2-pyridyl]-5-oxo-pyrrolidine-2-carboxamide]
